Laboratory results from patent publication US20060167099A1, “Use of compositions that increase glutamate receptor activity in treatment of brain injury” (priority 2004, published 2006).
Entries after “also recorded” stand apart in the source; their conditions may differ.

Assays:
[1] = test system: intact mice; experiment: NMDA dose-response experiment in intact mice (tolerability); conditions: i.p.
[2] = test system: NMDAR; conditions: NMDA 20 mg/kg i.p. 1 and 2 days after CHI; assessed 7 and 14 days postinjury (P=0.05 and 0.016)
From the text: Trauma Model. We used 8- to 12-week-old male Sabra mice (30-35 g) kept under controlled temperature and light conditions with food and water available ad libitum. The study was approved by the Institutional Animal Care Committee of the Hebrew University. Experimental CHI was induced by using a modified weight-drop device developed in our laboratory (Chen et al., J. Neurotrauma 13, 557-568 (1996); Yatziv et al., J. Cereb. Blood Flow Metab. 22, 971-978 (2002)). Briefly, after induction of ether anesthesia, a midline longitudinal incision was performed, the skin was retracted and the skull was exposed. The left anterior frontal area was identified and a Teflon tipped cone (2-mm diameter) was placed 1 mm lateral to the midline, in the midcoronal plane. The head was held in place manually and a 75-g weight was dropped on the cone from a height of 18 cm, resulting in a focal injury to the left hemisphere. After trauma, the mice received supporting oxygenation with 95% O2 for no longer than 2 min and were then returned to their cages. […]
(§1) Drug Treatments. […] The three groups were repeatedly evaluated for neurobehavioral deficits over a 2-week period (see below). […] Cognitive function was evaluated in head-injured and intact […] administered with either NMDA 20 mg/kg or saline 24 and again 48 h postinjury and tested 14 days later for performance in the object recognition test (see below).

[3] = test system: NMDAR; experiment: Object recognition test 14 days after CHI; format: in vivo, mice; conditions: for Percent of exploration time at the novel object: 4 h after baseline; for Proportion of time exploring two objects at baseline: baseline with two identical objects
From the text: Trauma Model. We used 8- to 12-week-old male Sabra mice (30-35 g) kept under controlled temperature and light conditions with food and water available ad libitum. The study was approved by the Institutional Animal Care Committee of the Hebrew University. Experimental CHI was induced by using a modified weight-drop device developed in our laboratory (Chen et al., J. Neurotrauma 13, 557-568 (1996); Yatziv et al., J. Cereb. Blood Flow Metab. 22, 971-978 (2002)). Briefly, after induction of ether anesthesia, a midline longitudinal incision was performed, the skin was retracted and the skull was exposed. The left anterior frontal area was identified and a Teflon tipped cone (2-mm diameter) was placed 1 mm lateral to the midline, in the midcoronal plane. The head was held in place manually and a 75-g weight was dropped on the cone from a height of 18 cm, resulting in a focal injury to the left hemisphere. After trauma, the mice received supporting oxygenation with 95% O2 for no longer than 2 min and were then returned to their cages. Sham controls received anesthesia and skin incision only. For autoradiographic studies, groups of four to five animals per time point were killed 15 min, 1, 4, 8, or 24 h, or 7 days postinjury and brains were quickly removed and frozen on dry ice.
as §1
Evaluation of Performance in the Object Recognition Test. The object recognition test was performed as originally described by Ennaceur and Delacour (Ennaceur & Delacour, Behav. Brain Res. 31, 47-59 (1988)). In the first part of the test (14 days after CHI) mice were placed in the testing cage (a glass aquarium-like transparent box of 60×60 cm) for 1 h habituation. On the following day they were put back into the same cage with two identical objects. The cumulative time spent by the mouse at each of the objects was recorded manually during a 5-min interval by an observer blinded to the treatment received. Four hours later, the mice were reintroduced into the cage, where one of the two objects was replaced by a new one. The time (of 5 min total) spent at each of the objects was recorded. The basic measure is the percent of the total time spent by mice in exploring an object during the testing period, whereby normal healthy rodents will spend relatively more time exploring a new object than a familiar, i.e., “memorized” object.

CN[C@H](CC(=O)O)C(=O)O [NMDA, N-methyl-D-aspartate]
Doses at which significant mortality was observed ([1]; doses tested between 20 and 100 mg/kg): above 60 mg/kg | Behavioural effects and mortality at the lowest dose ([1]; lowest dose of 20-100 mg/kg range (20 mg/kg)): hyperactivity and some stereotypy but no convulsions or mortality | dNSS (extent of neurological recovery) compared to vehicle-treated CHI mice [2]: significantly higher; also recorded: significantly accelerated | Object recognition performance compared to vehicle-treated CHI animals ([3]; CHI mice, NMDA 20 mg/kg 24 and 48 h postinjury, 14 days after CHI (P<0.0001)): significantly higher percentage; also recorded: significantly better | Percent of exploration time at the novel object ([3]; CHI mice, NMDA 20 mg/kg 24 and 48 h postinjury, tested 14 days after CHI): ≈ 70% | Proportion of time exploring two objects at baseline ([3]; CHI+NMDA group): ≈ 50% | Effect on object recognition performance of intact (naive) animals ([3]; intact animals, NMDA 20 mg/kg): no effect | Percent of exploration time at the novel object ([3]; intact mice treated with NMDA 20 mg/kg): ≈ 70% | Proportion of time exploring two objects at baseline ([3]; naive+NMDA group): ≈ 50%
